The results in this text go back to EP0139627A1, “Process for the preparation of 5,10-dihydro-1H-dibenzo [B,E] [1,4] diazepin-11-ones substituted in position 5” (ARZNEIMITTELWERK DRESDEN GmbH, priority 1983, dated 1985).

Series [1] has as its system Größe der Pupille. The following applies: mouse, in vivo, po.
Description: (§1) Die Wirkung der Substanzen auf die Größe der Pupille wurde an weiblichen Mäusen im Gewicht zwischen 18 und 23 Gramm nach der Versuchsordnung von R.Pulewka, Exp.Pathol. […] 30, 60, 90, 120, 180 und 240 Minuten nach oraler Präparatgabe wurde die Pupillenweite bestimmt und die x-fache Veränderung zum Ausgangswert berechnet. Als ED3-fach gilt die Dosis, bei der eine dreifache Pupillenerweiterung im Vergleich zum Ausgangswert auftritt.
The subject of series [2] is streßinduzierten Magenulzera. The series can be described thus: Inhibition of stress-induced gastric ulcers (immobilisation ulcer, method of Brodie). The class given is in vivo, Ratten. As to conditions: Rattus norvegicus, read-out: Immobilisationsulkus ED50. The text has this: Die Hemmwirkung auf die Bildung von streßinduzierten Magenulzera wurde nach der Methode von D.A.Brodie, Gastroenterolody, 38 (1960), 50, an weiblichen Ratten im Gewicht von 150 - 180 Gramm vom VEB Versuchstierproduktion Schönwalde bestimmt. Die Nahrungskarenz vor Versuchsbeginn betrug 48 Stunden, bei Wasser ad libitum. Die Testsubstanzen wurden unmittelbar vor Versuchsbeginn oral, mittels Schlundsonde appliziert. Die Immobilisation erfolgte mittels Gipsbinden über 18 Stunden. Während der Versuchsdauer war die Raumtemperatur konstant 20° C. Nach Versuchsende wurden die Tiere durch Äther getötet, die Mägen entnommen, entlang der kleinen Kurvatur aufgeschnitten und die Drüsenschleimhautdefekte nach Zahl und Länge im Vergleich zur Kontrollgruppe beurteilt. Für die statistische Berechnung diente die Probit-Regressions-Analyse.

In series [3] the test system is phenylbutazoninduzierte Magenulzera. The series can be described thus: Inhibition of phenylbutazone-induced gastric ulcers (model of Beattie et al.). As to conditions: Rattus norvegicus, 48 h; female rats, oral dose half an hour before each s.c. injection of 150 mg/kg Phenylbutazon on two days; read-out: Phenylbutazonulkus ED50. Format: in vivo, Ratten. As for the experimental part:
Die Hemmwirkung der Verbindungen auf phenylbutazoninduzierte Magenulzera wurde in Anlehnung an das Modell von Beattie und Mitarbeiter, Arzneimittelforschung, 29, (1979), 1812 ermittelt. Für die Untersuchung kamen weibliche Ratten der hauseigenen Zucht im Gewicht von 150 - 180 Gramm zur Anwendung.
Die Nahrungskarenz vor Versuchsbeginn betrug 24 Stunden, bei Wasser ad libitum. Während des Versuchs wurden die Tiere im Klimaraum bei einer Temperatur zwischen 22° C und 23° C gehalten. Die Ratten erhielten zwei Tage hintereinander jeweils 7 Uhr morgens eine s.c. Injektion von 150 mg/kg Phenylbutazon und die Tötung erfolgte sechs Stunden nach der letzten Injektion durch Nackenschlag. Die herauspräparierten Mägen wurden entlang der kleinen Kurvatur aufgeschnitten und die Schleimhautdefekte nach Zahl und Länge beurteilt. Die Applikation der Prüfsubstanzen erfolgte oral, eine halbe Stunde vor jeder Phenylbutazoninjektion.

The next series can be described thus: in vivo. The following applies: mouse, male and female mice, oral, read-out: akute Toxizität LD50. The text has this: Die akute Toxizität wurde an jeweils 5 männlichen und 5 weiblichen Mäusen im Gewicht von 18 - 23 Gramm pro dosi bestimmt. Die Applikation der Prüfsubstanzen erfolgte oral. Die Berechnung der LD50 wurde nach Litchfield und Wilcoxon durchgeführt.

Series [4] deals with Größe der Pupille. The series can be described thus: Effect on pupil size (mydriasis, method of Pulewka). As to conditions: female mice, oral; dose that widens the pupil three-fold versus baseline.
Description: as §1
[5] abbreviates: female rats, oral dose immediately before start, immobilisation for 18 hours, probit regression analysis.

SMILES strings stand for the structures. Where two headings read alike, the source gives them in different places.

Take `CN1C2CCC1CC(OC(=O)C(CO)c1ccccc1)C2` (racemic) [Atropin, reference compound]: in the series with Größe der Pupille [1], the “Pupillomotorik ED3-fach” value is given as 0,8 mg/kg. The ED50 in series [2] (po, 18 h) was 0.6 mg/kg.

For `O=C1Nc2ccccc2N(C(=O)CN2CCN(C(=O)c3ccco3)CC2)c2ccccc21` [C, 5,10-Dihydro-5-(2-{4-[(2-furanyl)-carbonyl] -1-piperazinyl}-acetyl)-11H-dibenzo[b,e] [1,4]diazepin-11-on], the “Pupillomotorik ED3-fach” value in the series on Größe der Pupille [1] is 67 mg/kg. The 50% effective dose (ED50) in series [2] (setting [5]) worked out at 14 mg/kg; in series [3] it was 20 mg/kg. Also, the LD50 in “in vivo” was determined as 2000 mg/kg.

As for `CN1CCN(CC(=O)N2c3ccccc3C(=O)Nc3cccnc32)CC1` [Pi renzepin, Pirenzepin, reference compound], the values for the ED50 in series [2] (setting [5]) and in series [3] were 11 mg/kg and 18 mg/kg, respectively. Also, in the series on Größe der Pupille [4], the “Pupillomotorik ED3-fach” value is listed as 30 mg/kg.

For the compound `O=C1Nc2cc(Cl)ccc2N(C(=O)CN(CCO)CCO)c2ccccc21` [A, 8-Chlor-5,10-dihydro-5-[bis-(2-hydroxyäthyl)amino-acetyl]-11H-dibenzo[b,e] [1,4]diazepin-11-on], the “Pupillomotorik ED3-fach” value in the series with Größe der Pupille [1] turned out to be 30 mg/kg. Besides, the ED50 in series [2] (setting [5]) is 6 mg/kg; in series [3], 5 mg/kg. The median lethal dose (LD50) in the series “in vivo” worked out at 2000 mg/kg.

Consider `CN1C(=O)c2ccccc2N(C(=O)CN2CCN(C(=O)c3ccco3)CC2)c2ccc(Cl)cc21` [D, 8-Chlor-5, 10-dihydro-5-(2-{4-[(2-furanyl)-carbonyl]-1-piperazinyl}-acetyl)-10-methyl-11H-dibenzolbenzo[b,e][1,4]-diazepin-11-on], for which, in the series with Größe der Pupille [1], the “Pupillomotorik ED3-fach” value was 250 mg/kg. Besides, the ED50 is 26 mg/kg in series [2] (setting [5]) and 36 mg/kg in series [3]. For the same compound, the LD50 in the series “in vivo” stood at 1600 mg/kg.

With `CN1C(=O)c2ccccc2N(C(=O)CN(CCO)CCO)c2ccccc21` [E, 5,10-Dihydro-10-methyl-5-[bis-{2-hydroxyäthyl)-amino-acetyl]-11H-dibenzo[b,e] [1,4]diazepin-11-on], the “Pupillomotorik ED3-fach” value in the series on Größe der Pupille [1] is recorded as 95 mg/kg. The 50% effective dose (ED50) in series [2] (setting [5]) was 27 mg/kg; in series [3], 22 mg/kg. Also, in the series “in vivo”, the median lethal dose (LD50) was determined as 1000 mg/kg.

Consider `O=C1Nc2ccccc2N(C(=O)CN(CCO)CCO)c2ccccc21` [B, 5,10-Dihydro-5-[bis-(2-hydroxyäthyl) -aminoacetyl]-11H-dibenzo[b,e][1,4] diazepin-11-on], for which the “Pupillomotorik ED3-fach” value in the series on Größe der Pupille [1] turned out to be 4 mg/kg. For the same compound, the 50% effective dose (ED50) came to 1 mg/kg in series [2] (setting [5]) and 1.6 mg/kg in series [3]. Besides, in “in vivo”, the LD50 worked out at 2000 mg/kg.

By ED50 is commonly meant the midpoint of the dose-response relation. For orientation: LD50 means the dose expected to kill half of the subjects tested.
